Laboratory results from article PMC6826694, “Validation of Hepatocellular Carcinoma Experimental Models for TGF-β Promoting Tumor Progression” (Cancers, 2019).

What was measured:
SK-HEP1-Luc cells = test system: SK-HEP1-Luc cells; design: method as in PMID 26549110; settings: oral administration, female BALB/C nu/nu, orthotopic SK-HEP1-Luc; ref [45]; cited from earlier work
[1] = test system: TGF-β1, TGF-β RI and TGF-β RII mRNA; experiment: qRT-PCR mRNA expression in tumor tissues of the orthotopic model; format: in vivo, mouse; settings: for mRNA expression of TGF-βI, TGF-β RI and TGF-β RII levels vs controls: tumor tissues, qRT-PCR
Text: No difference was found comparing the two Galunisertib formulations.

HepG2-Luc cells = experiment: Orthotopic HCC model, intrahepatic HepG2-Luc cells in NOG mice, tumor growth by IVIS bioluminescence; format: in vivo, mouse; settings: for Bioluminescence (average radiance, IVIS) vs vehicle (GP1): NOG mice, HepG2-Luc
Method: To evaluate in vivo the effect of Galunisertib (LY2157299) on tumor growth rate we used an orthotopic model: HCC was induced by intrahepatic injections of 1 × 10^6 HepG2-Luc cells in 7–8 weeks old, female NOG mice. The inoculated animals presented a clear engraftment of the liver cancer. The tumor growth was monitored weekly with IVIS Spectrum (PerkinElmer) through intraperitoneal administration of D-Luciferin (Sigma, 150 mg/10 mL/kg) until the end of the experiment.
Two weeks after the injection of HepG2-Luc cells, 45 mice were selected based on the bioluminescence signal and randomized into three groups of 15 animals. The first group (control group) was treated with 10 mL/kg of a […] vehicle solution (10% DMSO, 30% PEG400, 10% EtOH, 30% saline solution, 20% HCl 0.01 M, final pH 6.0). The second group (GP2) received 10 mL/kg Galunisertib solution via gastric probe (OS) and in the third group of mice (GP3) the drug was administered intravenously (IV) with 5 mL/kg Galunisertib encapsulated in polymeric nanocapsules. This nanoencapsulation was used to optimize the formulation in order to maximize therapeutic efficiency and minimize systemic toxicity. The nanocapsules were prepared from biocompatible and biodegradable polymers as described previously.
After sacrificing the animals, a complete necropsy was performed and documented by photos. Before sacrificing the animals, they were imaged by IVIS Spectrum to identify bioluminescent tissues for explantation.
Figure 4 Treatment of NOD/Shi-Scid/IL-2Rγ^null […] (NOG) mice with luciferin-labeled hepatocellular carcinoma (HCC) with vehicle or two Galunisertib preparations. (A). Bioluminescence images of NOG mice prior injected intrahepatically with HepG2-Luc cells at Day 23 and 44 after vehicle injection (GP1), or Galunisertib administration via gavage (GP2) or intravenous route (GP3). (B) Average Radiance (IVIS) versus time after tumor inoculation. Data were averaged over the animals which reached the end of experiment (GP1: n = 15; GP2: n = 14; GP3: n = 10).

HepG2 cells = test system: HepG2 cells; design: method as in PMID 23826206; settings: exogenous TGF-β1 in vitro, ref [22]; cited from earlier work
[2] = Appearance / solubility of Galunisertib in the dosing formulations; format: physicochemical
Method: (§1) Firstly, we quantified the concentration of LY2157299 in plasma of female CD-1 mice by a liquid chromatographic method, in order to define the concentration for the therapeutic window. Therefore, the drug was administered orally and given in two formulations. Group 1 (15 mice) received Galunisertib as suspension (75 mg/kg) prepared by mixing Galunisertib with 1% Carboxymethylcellulose, 0.5% Sodium Lauryl Sulfate, 0.085% Povidone, followed by sonication in a water bath sonicator or with a probe sonicator until a fine suspension with a final concentration of 7.5 mg/mL was achieved. Group 2 (15 mice) received Galunisertib as solution (150 mg/kg solution) prepared by dissolving the drug in 10% of dimethylsulfoxide (DMSO), and then adding sequentially polyethylene glycol (PEG)400 (30%), ethanol (EtOH) (10%), saline (30%) and HCl 0.01 M (20%) at a final pH of ~6 under mixing to a final concentration of 15 mg/mL.

[3] = test system: pancreatic ductal adenocarcinoma; design: method as in PMID 30866547; settings: ref [17]; cited from earlier work
CD44 and THY1 = test system: CD44 and THY1; design: method as in PMID 29515105, PMID 26057634; settings: HLE and HLF cells in vitro; ref [24, 25]; cited from earlier work
SKIL and PMEPA1 mRNA = settings: HCC tumor tissues; ref [26]; cited from earlier work
[4] = test system: invasive HCC cells (HLE and HLF); design: method as in PMID 29515105, PMID 26057634; settings: in vitro and in ex vivo human HCC samples; ref [24, 25]; cited from earlier work
[5] = Plasma pharmacokinetics of Galunisertib after single oral dose (HPLC-FL); format: in vivo, mouse; settings: for AUC(0-t) / Cmax / Tmax / half-life / k el: mouse, single oral dose, female CD-1 mice, plasma
Method: as §1
The volume of administration was 10mL/kg for single treatment. Physical appearance, behavior as well as general and local clinical signs of the mice were monitored throughout the experiment. […] At predefined time points (0.5, 1, 2, 4, 8 h after administration), the animals were deeply anesthetized by isoflurane followed by a complete retro-orbital bleeding. The blood was collected in heparinized tubes and centrifuged at 6000× g for 5–10 minutes within 15 minutes after collection. The plasma was transferred to tubes and stored at −20 °C until analysis.
To quantify the concentration of Galunisertib, plasma was measured by a HPLC/Fluorimetric (HPLC-FL) method.
The pharmacokinetic parameters (Kelim, T1/2, and Tmax.) represented as mean ± SD of three animals/time for both Galunisertib formulations were determined using the MKModel by Nick Holford software Version 4, (Biosoft, Ferguson, MO, USA) or equivalent pharmacokinetic programs (Table 4).

TGF-β1 SMAD2/3 pathway = test system: TGF-β1 SMAD2/3 pathway; design: method as in PMID 29957876; settings: CC14-induced mice; ref [20]; cited from earlier work
CD133 and Vimentin = test system: CD133 and Vimentin; design: method as in PMID 29805610; settings: ref [23]; cited from earlier work
[6] = test system: TGF-β linked EMT transition; settings: female BALB/C nude mice, subcutaneous Hg2 cells; ref [44]; cited from earlier work

Cc1cccc(-c2[nH]c(CNc3ccccc3F)nc2-c2ccc3ncnn3c2)n1 [EW-7197]
Effect on tumor growth (SK-HEP1-Luc cells): ALK 5 inhibitor interferes with tumor growth

Cc1cccc(-c2nn3c(c2-c2ccnc4ccc(C(N)=O)cc24)CCC3)n1 [Galunisertib]
mRNA level of the drug target compared to controls treated with vehicle ([1]; orthotopic HepG2-Luc model, NOG mice): statistically significant reduction (p = 0.03)
mRNA expression of TGF-βI, TGF-β RI and TGF-β RII levels vs controls ([1]; mice treated with Galunisertib solution): significant (p < 0.05) down-regulation
mRNA expression of TGF-βI, TGF-β RI and TGF-β RII levels vs controls ([1]; mice treated with encapsulated Galunisertib): significant (p < 0.05) down-regulation
Bioluminescence (average radiance, IVIS) vs vehicle (GP1) (HepG2-Luc cells; GP2 (LY × OS): 10 mL/kg Galunisertib solution via gastric probe): no significant difference in bioluminescence
Bioluminescence (average radiance, IVIS) vs vehicle (GP1) (HepG2-Luc cells; GP3 (LY × IV): 5 mL/kg Galunisertib encapsulated in polymeric nanocapsules, intravenous): no significant difference in bioluminescence
Effect on tumor regression or prevention of metastasis (HepG2-Luc cells; treated groups (GP2 gavage, GP3 intravenous) vs control, treatment period Day 16–Day 44): no effect on tumor regression or prevention of metastasis
Effect on TGF-β1-induced changes (flat, larger cells; reduced E-cadherin in cell–cell contact) (HepG2 cells): reversed
Appearance / solubility in formulation ([2]; new formulation, 150 mg/kg solution: 10% DMSO, 30% PEG400, 10% EtOH, 30% saline, 20% HCl 0.01 M, pH ~6, 15 mg/mL): completely clear solution
Appearance / solubility in formulation ([2]; old formulation (75 mg/kg): 1% Carboxymethylcellulose, 0.5% Sodium Lauryl Sulfate, 0.085% Povidone, 7.5 mg/mL): only moderately soluble
Effect on mast cell-mediated resistance to GEM/NAB (reduced apoptosis, TGF-β signaling, invasion) [3]: restored
Expression of CD44 and THY1 (CD44 and THY1): reducing the expression
SKIL and PMEPA1 mRNA expression (SKIL and PMEPA1 mRNA): strongly down-regulated
Colony formation, liver spheroids and invasive growth capacity [4]: decrease
Cmax and AUClast higher than the 75 mg/kg suspension ([5]; 150 mg/kg solution vs 75 mg/kg suspension, considering the dose correcting factor): 2.5 fold
AUC(0-t) ([5]; Solution (150 mg/kg)): 15500 ng·h/mL
Cmax ([5]; Solution (150 mg/kg)): 19000 ng/mL
Tmax ([5]; Solution (150 mg/kg)): 30 min
half-life ([5]; Solution (150 mg/kg)): 103 min
k el ([5]; Solution (150 mg/kg)): 0.000164 s⁻¹
AUC(0-t) ([5]; Suspension (75mg/kg)): 3110 ng·h/mL
Cmax ([5]; Suspension (75mg/kg)): 3330 ng/mL
Tmax ([5]; Suspension (75mg/kg)): 30 min
half-life ([5]; Suspension (75mg/kg)): 84 min
k el ([5]; Suspension (75mg/kg)): 0.000136 s⁻¹

NC(=O)c1ccc(-c2nc(-c3ccc4c(c3)OCO4)c(-c3ccccn3)[nH]2)cc1 [SB431542]
Effect on liver fibrosis and TGF-β1 SMAD2/3 (TGF-β1 SMAD2/3 pathway): significantly attenuated
Expression of CD133 and Vimentin (CD133 and Vimentin): upregulated

C[S+]([O-])CCCCN=C=S (stereo not shown) [Sulforaphane]
Effect on TGF-β linked EMT transition [6]: Sulforaphane inhibits TGF-β linked EMT transition
